In patent US9676760B2, “Fused heterocyclic compounds as ion channel modulators” (Gilead Sciences, Inc., priority 2011, dated 2017) one finds inhibition data, which are given here for 20 compounds.

The target of assay [1] is T1, wild-type human cardiac sodium channel, hNav1.5 (Homo sapiens, UniProt Q14524). Description: Late INa screening assay (QPatch whole cell patch clamp, HEK293). It counts as cell-based. An outline of the steps: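 HEK293 stably expressing hNav1.5 without beta subunits, recorded at 23-25° C. Late current was induced by 10 μM tefluthrin. Cells were depolarized from −120 mV to −20 mV for 250 ms at 0.1 Hz. Compounds were tested at 1 μM in extracellular solution, with baseline taken in 0Na-ECF; output is percent block of late INa.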

For assay [2], the target named is T1, wild-type human cardiac sodium channel, hNav1.5. Description: Peak INa screening assay (tonic and use-dependent block). It counts as cell-based. The settings on record: compound at 1 μM. The procedure:
The late sodium current (Late INa) and peak sodium current (Peak INa) assays are performed on an automated electrophysiology platform, QPatch 16× (Sophion Bioscience, Copenhagen, Denmark), which uses the whole cell patch clamp technique to measure currents through the cell membrane of up to 16 cells at a time. The assay uses an HEK293 (human embryonic kidney) cell line heterologously expressing the wild-type human cardiac sodium channel, hNav1.5, purchased from Millipore (Billerica, Mass.). No beta subunits were coexpressed with the Na channel alpha subunit. Cells are maintained with standard tissue culture procedures and stable channel expression is maintained with 400 μg/mL Geneticin in the culture medium. Cells isolated for use on QPatch are incubated for 5 minutes in Detachin 1×(Genlantis, San Diego, USA) at 37° C. to ensure that 80-90% of the cells are single and not part of a cell cluster. Experiments are carried out at 23-25° C.
For both the Late INa and Peak INa assays, series resistance compensation is set to 100% and series resistance and whole-cell compensation are performed automatically. Currents are digitized at 25 kHz and low-pass filtered at 12 kHz and 10 kHz for the late and peak INa assays, respectively. Currents through open sodium channels are automatically recorded and stored in the Sophion Bioscience Oracle database (Sophion Bioscience, Copenhagen, Denmark). Analysis is performed using QPatch Assay and database software and data are compiled in Excel.
Compound stocks are routinely made by the Gilead Sample Bank in plastic vials to 10 mM in dimethyl sulfoxide (DMSO). In some cases, when compounds are not soluble in DMSO, they are made in 100% ethanol. Stocks are sonicated as necessary. The extracellular solution for screening Late INa is composed of: 140 mM NaCl, 4 mM KCl, 1.8 mM CaCl2, 0.75 mM MgCl2 and 5 mM HEPES with pH adjusted to 7.4 using NaOH. The intracellular solution used to perfuse the inside of the cells for both the Late INa and Peak INa assays contains: 120 mM CsF, 20 mM CsCl, 5 mM EGTA, 5 mM HEPES and pH adjusted to 7.4 with CsOH. Compounds are diluted in extracellular solution to 1 μM in glass vials and then transferred to glass well plates before robotic addition to the cells. The 0 mM Na extracellular solution (0Na-ECF) used at the end of each experiment for the Late INa and Peak INa assays to measure baseline current contains: 140 mM N-methyl-D-glucamine; 4 mM KCl; 1.8 mM CaCl2; 0.75 mM MgCl2; 5 mM HEPES and pH was adjusted to 7.4 with HCl.
Compounds were also evaluated for their effect in several other assays, including their effect on Peak INa. […] Since the peak INa in the cells used herein can be very large, introducing artifacts in the recording, the concentration of Na^+ in the bath can be reduced to 20 mM and a nonpermeant cation added to compensate for the Na^+ that was removed to maintain the osmolarity and ionic strength of the solution (see solution details below).
A low stimulation frequency of 0.1 Hz was used to determine the effect of the test compound when the channel spent most of the time in the resting (closed) state and provides information about Tonic Block (TB). A higher stimulation frequency (3 Hz) was used to measure block of the channel when it spent more time in the activated and inactivated states and provided a measure of Use-Dependent Block (UDB). Use-dependent block refers to the accumulation of block with increased frequency of channel activation.

[3] abbreviates: HEK293, percent block of late INa, compound at 1 μM, 10 μM Tefluthrin, read-out: Late INa 1 μM.
Setting [4] is: tonic block of peak INa, 0.1 Hz, read-out: Peak TB 1 μM.
[5] abbreviates: use-dependent block of peak INa, 3 Hz, read-out: Peak UDB 1 μM.

T1 sequence (Q14524 whole entry): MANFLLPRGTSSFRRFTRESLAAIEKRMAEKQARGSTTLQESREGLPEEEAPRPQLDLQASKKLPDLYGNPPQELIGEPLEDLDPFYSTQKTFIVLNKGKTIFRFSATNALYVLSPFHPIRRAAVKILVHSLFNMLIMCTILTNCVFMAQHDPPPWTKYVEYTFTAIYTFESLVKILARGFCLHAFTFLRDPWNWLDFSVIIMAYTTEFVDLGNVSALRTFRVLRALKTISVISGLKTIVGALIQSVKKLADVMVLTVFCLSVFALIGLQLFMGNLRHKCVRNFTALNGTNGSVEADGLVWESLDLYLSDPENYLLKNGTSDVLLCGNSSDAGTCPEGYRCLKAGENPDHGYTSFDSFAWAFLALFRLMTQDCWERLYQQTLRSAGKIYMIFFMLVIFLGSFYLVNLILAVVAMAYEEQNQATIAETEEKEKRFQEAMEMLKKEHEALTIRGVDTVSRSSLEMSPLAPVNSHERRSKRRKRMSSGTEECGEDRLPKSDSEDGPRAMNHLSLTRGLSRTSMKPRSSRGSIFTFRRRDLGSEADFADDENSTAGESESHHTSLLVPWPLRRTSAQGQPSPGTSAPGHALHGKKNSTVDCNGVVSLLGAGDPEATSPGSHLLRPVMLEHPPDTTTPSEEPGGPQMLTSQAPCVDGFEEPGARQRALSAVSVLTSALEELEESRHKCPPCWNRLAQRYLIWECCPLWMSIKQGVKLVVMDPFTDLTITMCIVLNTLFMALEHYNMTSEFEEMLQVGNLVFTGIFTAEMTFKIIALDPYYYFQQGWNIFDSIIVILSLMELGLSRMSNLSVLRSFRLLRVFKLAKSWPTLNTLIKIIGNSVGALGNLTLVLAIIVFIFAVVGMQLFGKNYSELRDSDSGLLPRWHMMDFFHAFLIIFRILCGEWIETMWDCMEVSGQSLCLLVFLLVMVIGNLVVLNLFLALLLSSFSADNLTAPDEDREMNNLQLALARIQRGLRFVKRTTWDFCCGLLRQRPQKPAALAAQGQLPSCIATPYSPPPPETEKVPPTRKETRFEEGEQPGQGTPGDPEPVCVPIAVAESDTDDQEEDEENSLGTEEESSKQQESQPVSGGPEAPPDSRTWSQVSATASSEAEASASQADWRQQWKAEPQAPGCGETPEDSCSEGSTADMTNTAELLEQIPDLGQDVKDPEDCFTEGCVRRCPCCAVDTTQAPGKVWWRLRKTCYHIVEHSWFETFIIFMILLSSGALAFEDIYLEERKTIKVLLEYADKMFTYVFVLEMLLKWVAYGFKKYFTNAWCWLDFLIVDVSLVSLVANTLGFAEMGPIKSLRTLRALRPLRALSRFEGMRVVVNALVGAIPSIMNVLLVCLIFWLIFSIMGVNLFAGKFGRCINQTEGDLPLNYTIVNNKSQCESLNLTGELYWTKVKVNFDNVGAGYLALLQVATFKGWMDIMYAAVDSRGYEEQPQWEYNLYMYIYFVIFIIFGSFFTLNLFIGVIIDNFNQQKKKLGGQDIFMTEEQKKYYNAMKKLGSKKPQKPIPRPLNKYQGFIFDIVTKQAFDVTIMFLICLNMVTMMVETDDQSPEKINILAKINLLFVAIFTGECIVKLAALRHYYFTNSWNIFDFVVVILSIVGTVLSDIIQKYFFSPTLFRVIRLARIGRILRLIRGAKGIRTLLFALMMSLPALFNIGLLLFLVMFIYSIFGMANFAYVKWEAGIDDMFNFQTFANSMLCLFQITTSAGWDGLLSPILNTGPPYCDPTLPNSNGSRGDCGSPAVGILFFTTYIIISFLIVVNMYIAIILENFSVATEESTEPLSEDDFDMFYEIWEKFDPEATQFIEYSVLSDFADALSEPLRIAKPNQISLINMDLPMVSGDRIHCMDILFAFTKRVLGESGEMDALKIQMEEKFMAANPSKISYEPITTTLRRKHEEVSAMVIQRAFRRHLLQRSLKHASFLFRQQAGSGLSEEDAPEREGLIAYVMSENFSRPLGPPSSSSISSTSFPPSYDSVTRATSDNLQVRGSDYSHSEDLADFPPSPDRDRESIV

Turning to `Cc1cnn(CN2CCOc3ccc(-c4ccc(OC(F)(F)F)cc4)cc3C2=O)c1` [II-155, 4-((4-methyl-1H-pyrazol-1-yl)methyl)-7-(4-(trifluoromethoxy)phenyl)-3,4-dihydrobenzo[f][1,4]oxazepin-5(2H)-one], the values for the inhibition at 1 µM in assay [1] (setting [3]), in assay [2] (setting [4]) and in assay [2] (setting [5]) were 38%, 13% and 11%, respectively.

For the compound `O=C1c2cc(-c3ccc(OC(F)(F)F)cc3)ccc2OCCN1Cn1cc(Cl)cn1` [II-156, 4-((4-chloro-1H-pyrazol-1-yl)methyl)-7-(4-(trifluoromethoxy)phenyl)-3,4-dihydrobenzo[f][1,4]oxazepin-5(2H)-one], the inhibition at 1 µM in assay [1] (HEK293, % Inhibition at 1 uM, read-out: Late INa*) came to 48%; in assay [1] (setting [3]) it was 48%; in assay [2] (setting [4]) it was 23%; in assay [2] (setting [5]), 13%.

As for `O=C1c2cc(-c3ccc(C(F)F)cc3)ccc2OCCN1Cc1ccccn1` [II-157, 7-(4-(difluoromethyl)phenyl)-4-(pyridin-2-ylmethyl)-3,4-dihydrobenzo[f][1,4]oxazepin-5(2H)-one], the inhibition at 1 µM in assay [1] (setting [3]) was 43%; in assay [2] (setting [4]) it was 13%; in assay [2] (setting [5]), 16%.

With `O=C1c2cc(-c3ccc(Cl)c(F)c3)ccc2OCCN1Cc1ccccn1` [II-158, 7-(4-chloro-3-fluorophenyl)-4-(pyridin-2-ylmethyl)-3,4-dihydrobenzo[f][1,4]oxazepin-5(2H)-one], the figures for the inhibition at 1 µM in assay [1] (setting [3]), in assay [2] (setting [4]) and in assay [2] (setting [5]) were 58%, 34% and 26%, respectively.

For `O=C1c2cc(-c3ccc(OC(F)(F)F)cc3)cc(F)c2OCCN1Cc1ccccc1` [II-165, 4-benzyl-9-fluoro-7-(4-(trifluoromethoxy)phenyl)-3,4-dihydrobenzo[f][1,4]oxazepin-5(2H)-one], the inhibition at 1 µM turned out to be 56% in assay [1] (setting [3]), 15% in assay [2] (setting [4]) and 30% in assay [2] (setting [5]).

With `O=C1c2cc(-c3ccc(C(F)(F)F)cc3)cc(F)c2OCCN1Cc1ccccc1` [II-166, 4-benzyl-9-fluoro-7-(4-(trifluoromethyl)phenyl)-3,4-dihydrobenzo[f][1,4]oxazepin-5(2H)-one], the inhibition at 1 µM was determined as 53% in assay [1] (setting [3]), 20% in assay [2] (setting [4]) and 34% in assay [2] (setting [5]).

On to `O=C1c2cc(-c3ccc(OC(F)(F)F)cc3)c(F)cc2OCCN1Cc1ccccc1` [II-167, 4-benzyl-8-fluoro-7-(4-(trifluoromethoxy)phenyl)-3,4-dihydrobenzo[f][1,4]oxazepin-5(2H)-one], for which the inhibition at 1 µM came to 56% in assay [1] (setting [3]), 20% in assay [2] (setting [4]) and 25% in assay [2] (setting [5]).

In the case of `O=C1c2cc(-c3ccc(C(F)(F)F)cc3)c(F)cc2OCCN1Cc1ccccc1` [II-168, 4-benzyl-8-fluoro-7-(4-(trifluoromethyl)phenyl)-3,4-dihydrobenzo[f][1,4]oxazepin-5(2H)-one], the inhibition at 1 µM in assay [1] (setting [3]) was 44%; in assay [2] (setting [4]), 36%; in assay [2] (setting [5]), 47%.

With `O=C1c2cc(-c3ccc(Cl)c(F)c3)ccc2OCCN1Cc1ncccc1F` [II-169, 7-(4-chloro-3-fluorophenyl)-4-((3-fluoropyridin-2-yl)methyl)-3,4-dihydrobenzo[f][1,4]oxazepin-5(2H)-one], the inhibition at 1 µM turned out to be 65% in assay [1] (setting [3]), 23% in assay [2] (setting [4]) and 23% in assay [2] (setting [5]).

For the compound `O=C1c2cc(-c3ccc(C(F)(F)F)cc3F)ccc2OCCN1Cc1ncccc1F` [II-170, 7-(2-fluoro-4-(trifluoromethyl)phenyl)-4-((3-fluoropyridin-2-yl)methyl)-3,4-dihydrobenzo[f][1,4]oxazepin-5(2H)-one], the inhibition at 1 µM was 66% in assay [1] (setting [3]), 36% in assay [2] (setting [4]) and 31% in assay [2] (setting [5]).

As for `Cc1cncc(CN2CCOc3ccc(-c4ccc(OC(F)(F)F)cc4)cc3C2=O)n1` [II-175, 4-((6-methylpyrazin-2-yl)methyl)-7-(4-(trifluoromethoxy)phenyl)-3,4-dihydrobenzo[f][1,4]oxazepin-5(2H)-one], the inhibition at 1 µM in assay [1] (setting [3]) was 53%; in assay [2] (setting [4]), 21%; in assay [2] (setting [5]), 16%.

In the case of `O=C1c2cc(-c3ccc(C(F)(F)F)cc3)ccc2OCCN1Cc1ncccc1F` [II-176, 4-((3-fluoropyridin-2-yl)methyl)-7-(4-(trifluoromethyl)phenyl)-3,4-dihydrobenzo[f][1,4]oxazepin-5(2H)-one], the inhibition at 1 µM in assay [1] (setting [3]) worked out at 68%; in assay [2] (setting [4]), 45%; in assay [2] (setting [5]), 44%.

Turning to `Cn1ccnc1CN1CCOc2ccc(-c3ccc(OC(F)(F)F)cc3)cc2C1=O` [II-186, 4-((1-methyl-1H-imidazol-2-yl)methyl)-7-(4-(trifluoromethoxy)phenyl)-3,4-dihydrobenzo[f][1,4]oxazepin-5(2H)-one], the inhibition at 1 µM is 55% in assay [1] (setting [3]), 20% in assay [2] (setting [4]) and 30% in assay [2] (setting [5]).

For `O=C1c2cc(-c3ccc(OC(F)(F)F)cc3)ccc2OCCN1Cc1nccn1Cc1ccccc1` [II-187], the values for the inhibition at 1 µM in assay [1] (setting [3]), in assay [2] (setting [4]) and in assay [2] (setting [5]) were 62%, 9% and 21%, respectively.

Take `O=C1c2cc(-c3ccc(OC(F)(F)F)cc3)ccc2OCCN1Cc1cn2ccccc2n1` [II-189, 4-(imidazo[1,2-a]pyridin-2-ylmethyl)-7-(4-(trifluoromethoxy)phenyl)-3,4-dihydrobenzo[f][1,4]oxazepin-5(2H)-one]: the values for the inhibition at 1 µM in assay [1] (setting [3]), in assay [2] (setting [4]) and in assay [2] (setting [5]) were 53%, 23% and 28%, respectively.

On to `Cn1cc(C(=O)N2CCOc3ccc(-c4ccc(OC(F)(F)F)cc4)cc3C2)cn1` [III-12, (1-methyl-1H-pyrazol-4-yl)(7-(4-(trifluoromethoxy)phenyl)-2,3-dihydrobenzo[f][1,4]oxazepin-4(5H)-yl)methanone], for which the inhibition at 1 µM in assay [1] (setting [3]) is 39%; in assay [2] (setting [4]) it was 10%; in assay [2] (setting [5]), 17%.

With `O=C(c1cc[nH]n1)N1CCOc2ccc(-c3ccc(OC(F)(F)F)cc3)cc2C1` [III-15, (1H-pyrazol-3-yl)(7-(4-(trifluoromethoxy)phenyl)-2,3-dihydrobenzo[f][1,4]oxazepin-4(5H)-yl)methanone], the inhibition at 1 µM in assay [1] (setting [3]) was 50%; in assay [2] (setting [4]), 19%; in assay [2] (setting [5]), 18%.

For the compound `O=C(Cc1ccccn1)N1CCOc2ccc(-c3ccc(C(F)(F)F)cc3)cc2C1` [III-29, 2-(pyridin-2-yl)-1-(7-(4-(trifluoromethyl)phenyl)-2,3-dihydrobenzo[f][1,4]oxazepin-4(5H)-yl)ethanone], the results for the inhibition at 1 µM in assay [1] (setting [3]), in assay [2] (setting [4]) and in assay [2] (setting [5]) were 48%, 11% and 14%, respectively.

As to `O=C1c2cc(-c3ccc(C(F)(F)F)s3)ccc2OCCN1Cc1ccccn1` [VI-31, 4-(pyridin-2-ylmethyl)-7-(5-(trifluoromethyl)thiophen-2-yl)-3,4-dihydrobenzo[f][1,4]oxazepin-5(2H)-one], the values for the inhibition at 1 µM in assay [1] (setting [3]), in assay [2] (setting [4]) and in assay [2] (setting [5]) were 61%, 50% and 42%, respectively.

Turning to `O=C1c2cc(-c3ccc(C4CC4)s3)ccc2OCCN1Cc1ccccn1` [VI-32, 7-(5-cyclopropylthiophen-2-yl)-4-(pyridin-2-ylmethyl)-3,4-dihydrobenzo[f][1,4]oxazepin-5(2H)-one], the inhibition at 1 µM came out at 66% in assay [1] (setting [3]), 28% in assay [2] (setting [4]) and 26% in assay [2] (setting [5]).
